Article PMC12483202, “Pharmacokinetic profile of oral firocoxib in the koala (Phascolarctos cinereus)” (PLOS One, 2025)
In brackets after ≈: the same amount, converted by molar mass. Read-outs that look alike come from different tables or passages of the source.

How the values were obtained:
[1] = tested on: equine ischaemic intestinal injury; set-up: method as in PMID 19645580; details: cited from earlier work
[2] = tested on: COX-1:COX-2; details: cited from earlier work
[3] = set-up: method as in ref [8] of S9 Table; details: Goats (10), ref [8] of S9 Table, cited from earlier work
[4] = Firocoxib binding to plasma proteins, ultrafiltration; format: in vitro ADME; details: pooled plasma, pH 7.4, firocoxib 500 ng/mL, corrected for non-specific binding, thawed frozen plasma, read-out: corrected percentage bound to plasma proteins (converted)
Description: The percentage of firocoxib bound to koala plasma proteins was determined using the ultrafiltration method using a modified protocol. As firocoxib plasma protein binding (PPB) has been reported in horses, archived horse plasma (obtained under The University of Sydney approved animal ethics protocol: 2015/736) was tested simultaneously alongside koala plasma to compare the percentage of firocoxib bound to equine plasma proteins. The total plasma protein concentration in the koala samples was determined using Vetscan® VS2 chemistry analyser (Comprehensive Diagnostic Profile), (Zoetis Australia Pty Ltd., Rhodes, NSW). Firocoxib dissolved in dimethyl sulfoxide (to reduce non-specific binding) at a concentration of 500 ng/mL, was added to 1 mL of thawed pooled blank koala or horse plasma, the pH was adjusted to 7.4, and then incubated in a water bath at 37 °C for 30 min. […] Both fractions were analysed by HPLC as described above. All samples were analysed as duplicates. The percentage of substrate binding to plasma proteins was calculated using the equation: […]
(§1) The same concentrations of firocoxib were added to phosphate buffered saline and underwent ultrafiltration to determine non-specific binding to the filtration membrane. Thereafter the corrected percentage of substrate binding to plasma proteins was calculated as: […]

[5] = Repeated oral dosing (5 mg/kg every 12 h, six doses) plasma trough concentrations in koalas; format: in vivo; details: koala (Phascolarctos cinereus)
Description: At least 2 months after the initial single oral dose administration study, firocoxib was administered twice daily at a dose of 5 mg/kg orally (as described in the single dose administration) for three consecutive days with the last dose administered 60 h after first administration, with a total of six doses administered. Blood (2 mL) was collected once daily into lithium heparin tubes at […] after first firocoxib dosage (prior to the morning dose). The cap, extension tube and catheter were flushed with saline before and after each collection. The first 0.5 mL of blood was discarded to avoid dilution of samples with saline.
With the repeated oral dosing, the accumulation factor equation [18] was used to ascertain if there was any firocoxib accumulation between trough concentrations at 48 h versus 72 h:
Accumulationfactor=(1−e^−nkT)/(1−e^−kT)
Where n = the number of doses k = ke = elimination constant
τ = number of hours between dosing

[6] = tested on: equine plasma proteins; set-up: method as in PMID 17472652; details: radiolabelled firocoxib; cited from earlier work
[7] = Non-specific binding to the filtration membrane (phosphate buffered saline); format: in vitro ADME; details: at a concentration of 250 ng/mL
Description: as §1

[8] = set-up: method as in ref [9] of S9 Table; details: Rhinoceros (5); PO 0.1 mg/kg; ref [9] of S9 Table; cited from earlier work
[9] = set-up: method as in ref [5] of S9 Table; details: Camels (5); IV 0.1 mg/kg; ref [5] of S9 Table; cited from earlier work
[10] = tested on: urate crystal-induced synovitis in dogs; set-up: method as in ref 38 = [38]; 38 Dauteloup C , Pichou C , Beugnet F . Assessment of the efficacy of firocoxib and robenacoxib in an induced synovitis model of acute arthritis in dogs . International Journal of Applied Research in; details: cited from earlier work
[11] = tested on: COX-2; details: cited from earlier work
[12] = tested on: cats; set-up: method as in PMID 16111170; details: cited from earlier work
[13] = female, in vivo, Plasma firocoxib concentration (trough)
[14] = male, in vivo, Plasma firocoxib concentration (trough)

Q: Which results are given for CC1(C)OC(=O)C(OCC2CC2)=C1c1ccc(S(C)(=O)=O)cc1 [firocoxib]?
A: visceral analgesia ([1]; equine ischaemic intestinal injury): efficacious visceral analgesia; mucosal barrier function recovery ([1]; firocoxib compared with flunixin meglumine): superior mucosal barrier function recovery; COX-1:COX-2 inhibition ratio ([2]; dogs, whole blood): 384–427; COX-2 selectivity relative to carprofen ([2]; more potent than carprofen in COX-2 selectivity): 30 fold; t1/2 ([3]; IV 0.5 mg/kg): 26.41 h; Cmax ([3]; PO 0.5 mg/kg): 139 ng/mL; Tmax ([3]; PO 0.5 mg/kg): 0.77 h; t1/2 ([3]; PO 0.5 mg/kg): 21.51 h; fraction unbound at 30 min, 500 ng/mL ([4]; horse plasma): 0.147; fraction unbound at 30 min, 500 ng/mL ([4]; koala plasma): 0.153; concentration at 24 h ([5]; both sexes, plasma, arithmetic mean, six koalas, 24 h, 5 mg/kg oral every 12 h, read-out: Firocoxib plasma trough concentration): 54.7 ng/mL; concentration at 48 h ([5]; both sexes, plasma, arithmetic mean, six koalas, 48 h, 5 mg/kg oral every 12 h, read-out: Firocoxib plasma trough concentration): 47.4 ng/mL; concentration at 72 h ([5]; both sexes, plasma, arithmetic mean, six koalas, 72 h (12 h after the last dose), 5 mg/kg oral every 12 h, read-out: Firocoxib plasma trough concentration): 85.5 ng/mL; concentration at 24 h ([5]; both sexes, plasma, harmonic mean, six koalas, 24 h, 5 mg/kg oral every 12 h, read-out: Firocoxib plasma trough concentration): 43.3 ng/mL; concentration at 48 h ([5]; both sexes, plasma, harmonic mean, six koalas, 48 h, 5 mg/kg oral every 12 h, read-out: Firocoxib plasma trough concentration): 33.2 ng/mL; concentration at 72 h ([5]; both sexes, plasma, harmonic mean, six koalas, 72 h (12 h after the last dose), 5 mg/kg oral every 12 h, read-out: Firocoxib plasma trough concentration): 68.8 ng/mL; concentration at 24 h ([5]; both sexes, plasma, median, six koalas, 24 h, 5 mg/kg oral every 12 h, read-out: Firocoxib plasma trough concentration): 58.3 ng/mL; concentration at 48 h ([5]; both sexes, plasma, median, six koalas, 48 h, 5 mg/kg oral every 12 h, read-out: Firocoxib plasma trough concentration): 52.9 ng/mL; concentration at 72 h ([5]; both sexes, plasma, median, six koalas, 72 h (12 h after the last dose), 5 mg/kg oral every 12 h, read-out: Firocoxib plasma trough concentration): 82.1 ng/mL; concentration at 24 h [5, 13]: 69.1 ng/mL; concentration at 48 h [5, 13]: 36.8 ng/mL; concentration at 72 h [5, 13]: 137 ng/mL; concentration at 24 h ([5]; female, plasma, harmonic mean, females, 24 h, 5 mg/kg oral every 12 h, read-out: Firocoxib trough plasma concentration): 75.5 ng/mL; concentration at 48 h ([5]; female, plasma, harmonic mean, females, 48 h, 5 mg/kg oral every 12 h, read-out: Firocoxib trough plasma concentration): 51.6 ng/mL; concentration at 72 h ([5]; female, plasma, harmonic mean, females, 72 h, 5 mg/kg oral every 12 h, read-out: Firocoxib trough plasma concentration): 118 ng/mL; concentration at 24 h ([5]; female, plasma, mean, females, 24 h, 5 mg/kg oral every 12 h, read-out: Firocoxib trough plasma concentration): 76.5 ng/mL; concentration at 48 h ([5]; female, plasma, mean, females, 48 h, 5 mg/kg oral every 12 h, read-out: Firocoxib trough plasma concentration): 55.5 ng/mL; concentration at 72 h ([5]; female, plasma, mean, females, 72 h, 5 mg/kg oral every 12 h, read-out: Firocoxib trough plasma concentration): 120 ng/mL; concentration at 24 h ([5]; female, plasma, median (range), females, 24 h, 5 mg/kg oral every 12 h, read-out: Firocoxib trough plasma concentration): 71.3 ng/mL; concentration at 48 h ([5]; female, plasma, median (range), females, 48 h, 5 mg/kg oral every 12 h, read-out: Firocoxib trough plasma concentration): 60.2 ng/mL; concentration at 72 h ([5]; female, plasma, median (range), females, 72 h, 5 mg/kg oral every 12 h, read-out: Firocoxib trough plasma concentration): 120 ng/mL; concentration at 24 h [5, 14]: 25.3 ng/mL; concentration at 72 h [5, 14]: 61.8 ng/mL; concentration at 24 h ([5]; male, plasma, arithmetic mean, males, 24 h, 5 mg/kg oral every 12 h, read-out: Firocoxib trough plasma concentration): 33 ng/mL; concentration at 48 h ([5]; male, plasma, arithmetic mean, males, 48 h, 5 mg/kg oral every 12 h, read-out: Firocoxib trough plasma concentration): 39.2 ng/mL; concentration at 72 h ([5]; male, plasma, arithmetic mean, males, 72 h, 5 mg/kg oral every 12 h, read-out: Firocoxib trough plasma concentration): 51.3 ng/mL; concentration at 24 h ([5]; male, plasma, harmonic mean, males, 24 h, 5 mg/kg oral every 12 h, read-out: Firocoxib trough plasma concentration): 30.3 ng/mL; concentration at 48 h ([5]; male, plasma, harmonic mean, males, 48 h, 5 mg/kg oral every 12 h, read-out: Firocoxib trough plasma concentration): 24.6 ng/mL; concentration at 72 h ([5]; male, plasma, harmonic mean, males, 72 h, 5 mg/kg oral every 12 h, read-out: Firocoxib trough plasma concentration): 48.5 ng/mL; concentration at 24 h ([5]; male, plasma, median (range), males, 24 h, 5 mg/kg oral every 12 h, read-out: Firocoxib trough plasma concentration): 26.1 ng/mL; concentration at 48 h ([5]; male, plasma, median (range), males, 48 h, 5 mg/kg oral every 12 h, read-out: Firocoxib trough plasma concentration): 48.2 ng/mL; concentration at 72 h ([5]; male, plasma, median (range), males, 72 h, 5 mg/kg oral every 12 h, read-out: Firocoxib trough plasma concentration): 56.2 ng/mL; bound in horse plasma [6]: 97%; non-specific binding of firocoxib [7]: 4.06%; Cmax [8]: 15.7 ng/mL; t1/2 [8]: 4.96 h; t1/2 [9]: 5.75 h; peak vertical force and weight-bearing capacity [10]: efficacy in improving the peak vertical force and weight-bearing capacity; IC80 (COX-2) ([11]; horse whole blood, in vitro): 0.067 µg/mL (≈ 0.199 µM); plasma concentration required to inhibit 80% of in vitro COX-2 reactions ([11]; horse, corrected from whole blood IC80): exceeding 103 ng/mL; COX-1:COX-2 inhibition ratio ([11]; horses, whole blood): 643; antipyretic activity [12]: antipyretic activity
